Measurements reported in PubChem BioAssay (NCI).
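GI50 is the concentration that inhibits growth by half. TGI denotes the concentration required for complete inhibition of growth.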

Legend:
Test in all cases: NCI-60 cell line screen, 384-well format
K-562 leukemia = test system: K-562 leukemia
MALME-3M melanoma = test system: MALME-3M melanoma
IGROV1 ovarian = test system: IGROV1 ovarian
SK-MEL-28 melanoma = test system: SK-MEL-28 melanoma
ACHN renal = test system: ACHN renal
U251 glioblastoma = test system: U251 glioblastoma
NCI-H226 lung = test system: NCI-H226 lung
CAKI-1 renal = test system: CAKI-1 renal
SK-MEL-2 melanoma = test system: SK-MEL-2 melanoma
OVCAR-3 ovarian = test system: OVCAR-3 ovarian
HS 578T breast = test system: HS 578T breast
OVCAR-4 ovarian = test system: OVCAR-4 ovarian
HCT-116 colon = test system: HCT-116 colon
SNB-19 CNS = test system: SNB-19 CNS
HL-60(TB) leukemia = test system: HL-60(TB) leukemia
MOLT-4 leukemia = test system: MOLT-4 leukemia
KM12 colon = test system: KM12 colon
SNB-75 CNS = test system: SNB-75 CNS
NCI-H522 lung = test system: NCI-H522 lung
HOP-62 NSCLC = test system: HOP-62 NSCLC
NCI/ADR-RES ovarian = test system: NCI/ADR-RES ovarian
NCI-H460 NSCLC = test system: NCI-H460 NSCLC
TK-10 renal = test system: TK-10 renal
NCI-H322M lung = test system: NCI-H322M lung
UACC-62 melanoma = test system: UACC-62 melanoma
786-0 renal = test system: 786-0 renal
CCRF-CEM leukemia = test system: CCRF-CEM leukemia
PC-3 prostate = test system: PC-3 prostate
NCI-H23 lung = test system: NCI-H23 lung
COLO 205 colon = test system: COLO 205 colon
HT29 colon = test system: HT29 colon
OVCAR-8 ovarian = test system: OVCAR-8 ovarian
BT-549 breast = test system: BT-549 breast
LOX IMVI melanoma = test system: LOX IMVI melanoma
SF-295 CNS = test system: SF-295 CNS
M14 melanoma = test system: M14 melanoma
A549 NSCLC = test system: A549 NSCLC
SK-MEL-5 melanoma = test system: SK-MEL-5 melanoma
RXF 393 renal = test system: RXF 393 renal
RPMI-8226 leukemia = test system: RPMI-8226 leukemia
SF-539 CNS = test system: SF-539 CNS
SF-268 CNS = test system: SF-268 CNS
MCF7 breast = test system: MCF7 breast
HOP-92 NSCLC = test system: HOP-92 NSCLC
SW-620 colon = test system: SW-620 colon
SN12C renal = test system: SN12C renal
MDA-MB-435 melanoma = test system: MDA-MB-435 melanoma
UACC-257 melanoma = test system: UACC-257 melanoma
EKVX NSCLC = test system: EKVX NSCLC
A498 renal = test system: A498 renal
HCT-15 colon = test system: HCT-15 colon
SK-OV-3 ovarian = test system: SK-OV-3 ovarian
MDA-MB-468 breast = test system: MDA-MB-468 breast
DU-145 prostate = test system: DU-145 prostate

Molecule `CCCOC(=O)c1nc(N(CC2CCCCC2)C(=O)NC)sc1/N=C/c1ccccc1` has a GI50 (K-562 leukemia) of 3.37 µM, a TGI (K-562 leukemia) of 10.7 µM and a GI50 (MALME-3M melanoma) of 3.51 µM. The TGI (MALME-3M melanoma) was 9.53 µM, the GI50 (IGROV1 ovarian) was 3.71 µM and the TGI (IGROV1 ovarian) was 14.4 µM. The GI50 (SK-MEL-28 melanoma) was 5.74 µM, the TGI (SK-MEL-28 melanoma) was 16.9 µM and the GI50 (ACHN renal) was 9.87 µM. The TGI (ACHN renal) was 21.9 µM, the GI50 (U251 glioblastoma) was 7.26 µM and the TGI (U251 glioblastoma) was 21.2 µM. For the same molecule, the GI50 (NCI-H226 lung) was 5.1 µM, the TGI (NCI-H226 lung) was 18.1 µM and the GI50 (CAKI-1 renal) was 5.18 µM. It also gave a TGI (CAKI-1 renal) of 18.1 µM, a GI50 (SK-MEL-2 melanoma) of 2340 nM and a TGI (SK-MEL-2 melanoma) of 4.27 µM. For the same molecule, the GI50 (OVCAR-3 ovarian) was 2010 nM, the TGI (OVCAR-3 ovarian) was 4.27 µM and the GI50 (HS 578T breast) was 2220 nM. It also gave a TGI (HS 578T breast) of 5.66 µM, a GI50 (OVCAR-4 ovarian) of 2740 nM and a TGI (OVCAR-4 ovarian) of 12.5 µM. For the same molecule, the GI50 (HCT-116 colon) was 3.2 µM, the TGI (HCT-116 colon) was 9.48 µM and the GI50 (SNB-19 CNS) was 5.73 µM. It also gave a TGI (SNB-19 CNS) of 17.4 µM, a GI50 (HL-60(TB) leukemia) of 1730 nM and a TGI (HL-60(TB) leukemia) of 3.11 µM. The GI50 (MOLT-4 leukemia) was 1760 nM, the TGI (MOLT-4 leukemia) was 3.2 µM and the GI50 (KM12 colon) was 3.26 µM. It also gave a TGI (KM12 colon) of 11.8 µM, a GI50 (SNB-75 CNS) of 2550 nM and a TGI (SNB-75 CNS) of 7.92 µM. It also gave a GI50 (NCI-H522 lung) of 1800 nM, a TGI (NCI-H522 lung) of 5.05 µM and a GI50 (HOP-62 NSCLC) of 2450 nM. For the same molecule, the TGI (HOP-62 NSCLC) was 7.26 µM, the GI50 (NCI/ADR-RES ovarian) was 2510 nM and the TGI (NCI/ADR-RES ovarian) was 8.09 µM. The GI50 (NCI-H460 NSCLC) was 2560 nM, the TGI (NCI-H460 NSCLC) was 6.26 µM and the GI50 (TK-10 renal) was 8.53 µM. The TGI (TK-10 renal) was 21.8 µM, the GI50 (NCI-H322M lung) was 31.3 µM and the TGI (NCI-H322M lung) was > 100 µM. It also gave a GI50 (UACC-62 melanoma) of 3.48 µM, a TGI (UACC-62 melanoma) of 14 µM and a GI50 ([…]-0 renal) of 6.22 µM. The TGI (786-0 renal) was 18.7 µM, the GI50 (CCRF-CEM leukemia) was 2030 nM and the TGI (CCRF-CEM leukemia) was 3.76 µM. For the same molecule, the GI50 (PC-3 prostate) was 3.58 µM, the TGI (PC-3 prostate) was 12.8 µM and the GI50 (NCI-H23 lung) was 3.39 µM. For the same molecule, the TGI (NCI-H23 lung) was 11.4 µM, the GI50 (COLO 205 colon) was 4.56 µM and the TGI (COLO 205 colon) was 16.1 µM. It also gave a GI50 (HT29 colon) of 2580 nM, a TGI (HT29 colon) of 6.98 µM and a GI50 (OVCAR-8 ovarian) of 10.7 µM. For the same molecule, the TGI (OVCAR-8 ovarian) was 23.1 µM, the GI50 (BT-549 breast) was 4.02 µM and the TGI (BT-549 breast) was 12.4 µM. It also gave a GI50 (LOX IMVI melanoma) of 3.83 µM, a TGI (LOX IMVI melanoma) of 11.3 µM and a GI50 (SF-295 CNS) of 2160 nM. For the same molecule, the TGI (SF-295 CNS) was 5.51 µM, the GI50 (M14 melanoma) was 3.46 µM and the TGI (M14 melanoma) was 10.9 µM. The GI50 (A549 NSCLC) was 9.71 µM, the TGI (A549 NSCLC) was 22 µM and the GI50 (SK-MEL-5 melanoma) was 2430 nM. The TGI (SK-MEL-5 melanoma) was 11.3 µM, the GI50 (RXF 393 renal) was 2650 nM and the TGI (RXF 393 renal) was 5.99 µM. It also gave a GI50 (RPMI-8226 leukemia) of 1610 nM, a TGI (RPMI-8226 leukemia) of 3.22 µM and a GI50 (SF-539 CNS) of 4.85 µM. It also gave a TGI (SF-539 CNS) of 16.6 µM, a GI50 (SF-268 CNS) of 5.35 µM and a TGI (SF-268 CNS) of 15.5 µM. For the same molecule, the GI50 (MCF7 breast) was 2660 nM, the TGI (MCF7 breast) was 7.98 µM and the GI50 (HOP-92 NSCLC) was 4.36 µM. It also gave a TGI (HOP-92 NSCLC) of 14.6 µM, a GI50 (SW-620 colon) of 3.5 µM and a TGI (SW-620 colon) of 13.5 µM. The GI50 (SN12C renal) was 6.86 µM, the TGI (SN12C renal) was 19.6 µM and the GI50 (MDA-MB-435 melanoma) was 1790 nM. For the same molecule, the TGI (MDA-MB-435 melanoma) was 4.03 µM, the GI50 (UACC-257 melanoma) was 7.33 µM and the TGI (UACC-257 melanoma) was 29.1 µM. For the same molecule, the GI50 (EKVX NSCLC) was 8.12 µM, the TGI (EKVX NSCLC) was 20.7 µM and the GI50 (A498 renal) was 4.1 µM. The TGI (A498 renal) was 14.7 µM, the GI50 (HCT-15 colon) was 2830 nM and the TGI (HCT-15 colon) was 8.63 µM. The GI50 (SK-OV-3 ovarian) was 3.49 µM, the TGI (SK-OV-3 ovarian) was 14.7 µM and the GI50 (MDA-MB-468 breast) was 2130 nM. For the same molecule, the TGI (MDA-MB-468 breast) was 4.05 µM, the GI50 (DU-145 prostate) was 12.3 µM and the TGI (DU-145 prostate) was 27.5 µM.
